In patent publication US8203033B2, “Methods and compositions for providing tolerance to multiple herbicides” (Pioneer Hi-Bred International, Inc., priority 2005, dated 2012):

Legend:
Assay type in all cases: in vivo
[1] = tested on: Hairy Fleabane (Conyza bonariensis); experiment: Glyphosate, metsulfuron-methyl and two additives on the control of hairy fleabane
Description: This example included the same treatments as used in Example 11, except the treatments were carried out on a glyphosate sensitive biotype of Kleinskraalhans (Conyza bonariensis).

[2] = tested on: parent elite stiff stalk inbred corn; experiment: Preemergence test of ALS herbicides on corn (fresh weight, visual injury); conditions: 200 g/ha, mean of four replications; for Fresh Weight: fresh shoots weighed 4 weeks after treatment; for % Visual Injury: 0% no injury, 100% plant death
[3] = tested on: control maize; experiment: Evaluation of herbicide tolerance, spray at V2 stage; conditions: postemergence; tribenuron, chlorimuron, imazapyr 200 g ai/ha; metsulfuron-methyl 35 g ai/ha
[4] = tested on: non-glyphosate resistant ryegrass (70-04); experiment: Glyphosate, metsulfuron-methyl and two additives on the control of ryegrass; conditions: 5-6 leaf stage
Description: The example was conducted on non-glyphosate resistant ryegrass. As provided in Table 23, all treatments that included glyphosate [180 g a.i. L ha^−1 (0.5 L glyphosate (SCAT®))] plus metsulfuron-methyl (BRUSH-OFF®) (5 and 10 g ha^−1) gave 100% control of the ryegrass.

[5] = tested on: GAT-HRA maize; experiment: Evaluation of herbicide tolerance, spray at V2 stage; conditions: postemergence; tribenuron, chlorimuron, imazapyr 200 g ai/ha; metsulfuron-methyl 35 g ai/ha
Description: GAT-HRA maize plants were evaluated for tolerance to glyphosate and other herbicides. One protocol used in this evaluation was as follows. At the V2 stage (Ritchie and Hanway (1982), “How a corn plant develops” Spec. Rep. 48. (Coop. Ext. Ser., Iowa State Univ., Ames, Iowa)), plant heights were measured and herbicides were applied by spray application. Ten to fourteen days after the spray application, the transgenic plants were evaluated for injury symptoms and measured for plant height again in order to determine plant growth rates.
Plants were then evaluated at various times after treatment, such as 10 or 14 days after treatment. […] Leaf samples were taken from GAT-HRA plants and used in quantitative PCR analysis and other analyses to determine the number and arrangement of copies of the GAT and HRA polynucleotides that had been integrated into the plant genome.
Other protocols for evaluation included treatment with imidazolinone herbicides, such as the commercial herbicide Lightning® (a combination of imazapyr and imazethapyr), which was applied to GAT-HRA maize at the V2 leaf stage at four times the field label rate (250 g ai/ha). […] Another protocol for evaluation included treatment with imidazolinone herbicides as well as sulfonylurea and glyphosate herbicides. In these tests, GAT-HRA maize was treated with various combinations of Lightning® (imazapyr and imazethapyr), Basis® (rimsulfuron and thifensulfuron-methyl) and WeatherMAX® (glyphosate potassium salt). These herbicides were applied at the V2 stage as follows: Lightning® at twice the field label rate (1.8 oz ai/ac (133 ml ai/ha)), Basis® at twice the field label rate (0.5 oz ai/ac (36.9 ml ai/ha)) and WeatherMax® at four times the field label rate (43 oz ai/ac). Fourteen days after the treatment application, the plants were evaluated. […] “Field label rate” refers to the application rate specified on the product label. Where the application rate for a particular situation is a range of rates, as used herein, the term “field label rate” indicates the upper end of that range. […]

[6] = tested on: Heterozygous GAT-HRA corn; experiment: Preemergence test of ALS herbicides on corn (fresh weight, visual injury); conditions: 200 g/ha, mean of four replications; for % Visual Injury: 0% no injury, 100% plant death; for Fresh Weight: fresh shoots weighed 4 weeks after treatment
[7] = tested on: Heterozygous GAT-HRA corn; experiment: Postemergence test of herbicides on corn (fresh weight, visual injury); conditions: for Fresh Weight: fresh shoots weighed 2 weeks after treatment
[8] = tested on: parent elite stiff stalk inbred corn; experiment: as above
[9] = 200 g/ha, 0% no injury, 100% plant death, mean of four replications
[10] = 200 g/ha, mean of four replications
[11] = 200 g/ha, fresh shoots weighed 2 weeks after treatment, mean of four replications

Molecule | Fresh Weight [2] [g] | % Visual Injury [6] [%] | Fresh Weight [6] [g] | % Visual Injury [2] [%] | % Visual Injury [7, 9] [%] | Fresh Weight [7, 10] [g] | % Visual Injury [8, 9] [%] | Fresh Weight [8, 11] [g] | further results
COC(=O)c1ccccc1S(=O)(=O)NC(=O)Nc1nc(C)nc(OC)n1 [Metsulfuron-methyl (BRUSH-OFF ®)] |  |  |  |  |  |  |  |  | Control (%) ([1]; Trial 2: metsulfuron-methyl (BRUSH-OFF) 5 g/ha): 100%; Control (%) ([1]; Trial 3: metsulfuron-methyl (BRUSH-OFF) 10 g/ha): 100%
COC(=O)c1ccccc1S(=O)(=O)NC(=O)Nc1nc(C)nc(OC)n1 [Metsulfuron-methyl, methyl 2-[[[[(4-methoxy-6-methyl-1,3,5-triazin-2-yl)amino]carbonyl]amino]sulfonyl]benzoate] | 0.0 |  |  |  |  |  |  |  | damage from the treatment [3]: severely damaged or killed; effect on the ryegrass, on its own [4]: did nothing accept stunt the ryegrass plants slightly; damage from the treatment [5]: no significant damage
COc1nn(C(=O)NS(=O)(=O)c2ccccc2OC(F)(F)F)c(=O)n1C [Flucarbazone Na^+, 4,5-dihydro-3-methoxy-4-methyl-5-oxo-N-[[2-(trifluoromethoxy)phenyl]sulfonyl]-1H-1,2,4-triazole-1-carboxamide] | 0.0 | 40 | 48.8 | 100 | 14 | 86.0 | 100 | 3.1 | 
CCOc1nc(NC)nc(NC(=O)NS(=O)(=O)c2ccccc2C(=O)OC)n1 [Ethametsulfuron-methyl, methyl 2-[[[[[4-ethoxy-6-(methylamino)-1,3,5-triazin-2-yl]amino]carbonyl]amino]sulfonyl]benzoate] | 1.6 | 88 |  | 100 | 6 | 98.0 | 96 | 5.6 | 
CO/N=C(/C)c1cccc(Oc2nc(OC)cc(OC)n2)c1C(=O)OC [Pyriminobac-methyl] |  | 20 |  | 83 | 4 |  | 93 | 7.6 | 
COC(=O)c1ccc(I)cc1S(=O)(=O)NC(=O)Nc1nc(C)nc(OC)n1 [Iodosulfuron-methyl Na^+, methyl 4-iodo-2-[[[[(4-methoxy-6-methyl-1,3,5-triazin-2-yl)amino]carbonyl]amino]sulfonyl]benzoate] | 24.4 | 5 | 52.5 | 92 | 1 | 95.0 | 100 | 3.5 | 
COC(=O)c1ccc(C(F)(F)F)nc1S(=O)(=O)NC(=O)Nc1nc(OC)cc(OC)n1 [Flupyrsulfuron-methyl Na^+, methyl 2-[[[[(4,6-dimethoxy-2-pyrimidinyl)amino]carbonyl]amino]sulfonyl]-6-(trifluoromethyl)-3-pyridinecarboxylate] | 23.6 | 90 | 45.8 | 87 | 4 | 95.5 | 95 | 5.2 | 
COC(=O)c1cccc(C)c1S(=O)(=O)NC(=O)Nc1nc(OCC(F)(F)F)nc(N(C)C)n1 [Triflusulfuron-methyl] |  |  |  |  |  |  |  | 2.1 | 
COC(=O)c1c(Cl)nn(C)c1S(=O)(=O)NC(=O)Nc1nc(OC)cc(OC)n1 [Halosulfuron-methyl, methyl 3-chloro-5-[[[[(4,6-dimethoxy-2-pyrimidinyl)amino]-carbonyl]amino]sulfonyl]-1-methyl-1H-pyrazole-4-carboxylate] |  | 15 |  | 30 | 8 |  | 14 |  | 
CCOc1nc(F)cc2nc(S(=O)(=O)Nc3c(Cl)cccc3C(=O)OC)nn12 [Chloransulam-methyl, methyl 3-chloro-2-[[(5-ethoxy-7-fluoro-[1,2,4]triazolo[1,5-c]pyrimidin-2-yl)sulfonyl]amino]benzoate] | 5.5 |  | 44.9 |  | 3 | 104.4 | 96 | 6.8 | 
COc1cc(OC)nc(Sc2cccc(Cl)c2C(=O)[O-])n1.[Na+] [Pyrithiobac Na^+, Pyrithiobac] | 0.0 |  | 48.6 |  |  | 87.9 |  | 2.8 | 
COc1cc(OC)nc(NC(=O)NS(=O)(=O)c2ncccc2OCC(F)(F)F)n1 [Trifloxysulfuron Na^+, N-[[(4,6-dimethoxy-2-pyrimidinyl)amino]-carbonyl]-3-(2,2,2-trifluoroethoxy)-2-pyridinesulfonamide] | 0.0 | 0 |  | 100 | 29 |  | 100 | 1.0 | 
COC(=O)c1ccccc1S(=O)(=O)NC(=O)Nc1nc(C)cc(C)n1 [Sulfometuron-methyl, methyl 2-[[[[(4,6-dimethyl-2-pyrimidinyl)amino]carbonyl]amino]sulfonyl]-benzoate] | 0.0 | 6 |  | 100 | 2 |  | 100 | 2.0 | 
CP(=O)(O)CCC(N)C(=O)O (stereo not shown) [Glufosinate ammonium] |  |  |  |  |  |  |  |  | % Visual Injury ([7]; 1870 g/ha): 1%; % Visual Injury ([8]; 1870 g/ha): 99%; Fresh Weight ([8]; 1870 g/ha, 2 weeks after treatment): 2.4 g
CCOC(=O)c1ccccc1S(=O)(=O)NC(=O)Nc1nc(Cl)cc(OC)n1 [Chlorimuron-ethyl, ethyl 2-[[[[(4-chloro-6-methoxy-2-pyrimidinyl)amino]carbonyl]amino]sulfonyl]-benzoate] | 9.3 | 10 |  | 100 | 15 |  | 93 |  | damage from the treatment [3]: severely damaged or killed; damage from the treatment [5]: no significant damage
O=C(O)CNCP(=O)(O)O [glyphosate (ROUNDUP ®)] |  |  |  |  |  |  |  |  | Control (%) ([1]; Trial 1: glyphosate (ROUNDUP) 0.5 L/ha): 12%
CCCOc1nn(C(=O)NS(=O)(=O)c2ccccc2C(=O)OC)c(=O)n1C [Propoxycarbazone Na^+, methyl 2-[[[(4,5-dihydro-4-methyl-5-oxo-3-propoxy-1H-1,2,4-triazol-1-yl)carbonyl]amino]sulfonyl]benzoate] | 0.6 | 100 | 46.7 | 100 | 9 | 101.2 | 100 | 1.9 | 
Imazamethabenz-methyl |  |  |  |  |  | 95.0 |  |  | 
CC(C)C1(C)N=C(c2ncccc2C(=O)O)NC1=O (stereo not shown) [Imazapyr] |  |  |  |  |  |  |  |  | damage from the treatment [3]: severely damaged or killed; damage from the treatment [5]: no significant damage
